Assay results from the NIST ThermoML archive (doi:10.1016/j.jct.2013.08.022).
Where “and” joins values, the source holds several entries; their conditions need not be identical. Equal values may be shown once.

Settings: Crystal, Closed cell (Static) method

c1ccccc1 [benzene]
Settings | vapor or sublimation pressure
233.2 K | 0.09891 kPa and 0.09902 kPa and 0.09885 kPa
235.7 K | 0.1277 kPa
238.21 K | 0.1641 kPa
240.7 K | 0.2093 kPa and 0.2094 kPa and 0.2095 kPa
243.2 K | 0.2655 kPa and 0.2656 kPa
245.68 K | 0.3351 kPa and 0.3352 kPa and 0.335 kPa
248.18 K | 0.4206 kPa and 0.4205 kPa
250.68 K | 0.5253 kPa and 0.5257 kPa
253.17 K | 0.6533 kPa and 0.6532 kPa and 0.6543 kPa
255.67 K | 0.8095 kPa and 0.8096 kPa and 0.8092 kPa
258.16 K | 0.9997 kPa and 0.9995 kPa and 0.9994 kPa
260.68 K | 1.231 kPa and 1.229 kPa
